Literature values, collected in patent publication US20120172384A1, “HETEROCYCLYLAMINOPYRIMIDINES AS KINASE INHIBITORS” (priority 2009, published 2012).

Key:
organ transplantation = details: Changelian et al., 2003; cited from earlier work
rheumatoid arthritis = rheumatoid arthritis (Weinblatt et al., 2008); cited from earlier work

C[C@@H]1CCN(C(=O)CC#N)C[C@@H]1N(C)c1ncnc2[nH]ccc12 [CP-690,550]
efficacy in animal model of organ transplantation (organ transplantation): show efficacy

COc1cc(Nc2ncc(F)c(Nc3ccc4c(n3)N(COP(=O)(O)O)C(=O)C(C)(C)O4)n2)cc(OC)c1OC [Example R788]
efficacy in clinical study (rheumatoid arthritis): demonstrated efficacy
